US9340555B2, “Compounds as tyrosine kinase modulators” (Allergan, Inc., priority 2009, dated 2016)

Key:
VEGFR1 = VEGFR1 (Homo sapiens (Human), UniProt P17948); experiment: Enzymic VEGFR1; type: biochemical
[1] = system: Rabbit Eye VEGF Permeability; experiment: Rabbit Eye VEGF Permeability Model; type: in vivo
Text: Rabbit Eye VEGF Permeability Model
Assay used was detailed by Jeffrey Edelman, etc in Exp. Eye. Res. 80 (2005), Pg 249-258.

PDGFRβ = PDGFRβ (Homo sapiens (Human), UniProt P09619); experiment: Enzymic PDGFRβ; type: biochemical
Sequence of PDGFRβ (P09619 33-1106, species assumed): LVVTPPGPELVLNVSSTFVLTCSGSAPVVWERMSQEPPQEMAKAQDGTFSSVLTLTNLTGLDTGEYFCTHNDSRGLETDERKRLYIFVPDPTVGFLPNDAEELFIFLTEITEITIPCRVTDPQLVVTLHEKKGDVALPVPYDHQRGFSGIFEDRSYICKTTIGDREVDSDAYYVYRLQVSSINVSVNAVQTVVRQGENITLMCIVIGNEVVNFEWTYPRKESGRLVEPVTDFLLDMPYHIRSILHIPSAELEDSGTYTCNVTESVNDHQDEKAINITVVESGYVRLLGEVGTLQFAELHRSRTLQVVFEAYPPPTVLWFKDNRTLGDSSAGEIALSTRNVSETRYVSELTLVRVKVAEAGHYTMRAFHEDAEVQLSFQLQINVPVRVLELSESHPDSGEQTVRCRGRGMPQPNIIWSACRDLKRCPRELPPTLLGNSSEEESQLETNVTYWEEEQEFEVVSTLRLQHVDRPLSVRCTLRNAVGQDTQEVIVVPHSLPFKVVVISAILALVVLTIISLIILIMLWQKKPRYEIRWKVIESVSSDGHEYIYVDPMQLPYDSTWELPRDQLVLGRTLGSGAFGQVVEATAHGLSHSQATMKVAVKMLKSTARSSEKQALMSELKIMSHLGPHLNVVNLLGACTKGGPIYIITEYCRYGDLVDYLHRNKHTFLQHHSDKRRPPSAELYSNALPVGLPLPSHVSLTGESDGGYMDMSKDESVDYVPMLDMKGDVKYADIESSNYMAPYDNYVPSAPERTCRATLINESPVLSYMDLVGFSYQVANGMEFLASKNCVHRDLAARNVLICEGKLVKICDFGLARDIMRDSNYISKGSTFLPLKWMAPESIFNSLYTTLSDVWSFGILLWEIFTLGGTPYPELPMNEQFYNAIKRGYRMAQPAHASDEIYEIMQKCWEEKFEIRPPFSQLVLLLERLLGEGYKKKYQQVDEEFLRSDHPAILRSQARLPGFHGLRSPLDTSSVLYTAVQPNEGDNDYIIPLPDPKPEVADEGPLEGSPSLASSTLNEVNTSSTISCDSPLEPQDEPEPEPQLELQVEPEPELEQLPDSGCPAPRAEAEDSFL

VEGFR2 = VEGFR2 (Homo sapiens (Human), UniProt P35968); experiment: VEGF Stimulated Ca++ Signal In Vitro (Cellular VEGFR2, FLIPR); type: cell-based; conditions: HUVEC, VEGF stimulation (5 ng/mL), intracellular calcium
Sequence of VEGFR2 (P35968 20-1356): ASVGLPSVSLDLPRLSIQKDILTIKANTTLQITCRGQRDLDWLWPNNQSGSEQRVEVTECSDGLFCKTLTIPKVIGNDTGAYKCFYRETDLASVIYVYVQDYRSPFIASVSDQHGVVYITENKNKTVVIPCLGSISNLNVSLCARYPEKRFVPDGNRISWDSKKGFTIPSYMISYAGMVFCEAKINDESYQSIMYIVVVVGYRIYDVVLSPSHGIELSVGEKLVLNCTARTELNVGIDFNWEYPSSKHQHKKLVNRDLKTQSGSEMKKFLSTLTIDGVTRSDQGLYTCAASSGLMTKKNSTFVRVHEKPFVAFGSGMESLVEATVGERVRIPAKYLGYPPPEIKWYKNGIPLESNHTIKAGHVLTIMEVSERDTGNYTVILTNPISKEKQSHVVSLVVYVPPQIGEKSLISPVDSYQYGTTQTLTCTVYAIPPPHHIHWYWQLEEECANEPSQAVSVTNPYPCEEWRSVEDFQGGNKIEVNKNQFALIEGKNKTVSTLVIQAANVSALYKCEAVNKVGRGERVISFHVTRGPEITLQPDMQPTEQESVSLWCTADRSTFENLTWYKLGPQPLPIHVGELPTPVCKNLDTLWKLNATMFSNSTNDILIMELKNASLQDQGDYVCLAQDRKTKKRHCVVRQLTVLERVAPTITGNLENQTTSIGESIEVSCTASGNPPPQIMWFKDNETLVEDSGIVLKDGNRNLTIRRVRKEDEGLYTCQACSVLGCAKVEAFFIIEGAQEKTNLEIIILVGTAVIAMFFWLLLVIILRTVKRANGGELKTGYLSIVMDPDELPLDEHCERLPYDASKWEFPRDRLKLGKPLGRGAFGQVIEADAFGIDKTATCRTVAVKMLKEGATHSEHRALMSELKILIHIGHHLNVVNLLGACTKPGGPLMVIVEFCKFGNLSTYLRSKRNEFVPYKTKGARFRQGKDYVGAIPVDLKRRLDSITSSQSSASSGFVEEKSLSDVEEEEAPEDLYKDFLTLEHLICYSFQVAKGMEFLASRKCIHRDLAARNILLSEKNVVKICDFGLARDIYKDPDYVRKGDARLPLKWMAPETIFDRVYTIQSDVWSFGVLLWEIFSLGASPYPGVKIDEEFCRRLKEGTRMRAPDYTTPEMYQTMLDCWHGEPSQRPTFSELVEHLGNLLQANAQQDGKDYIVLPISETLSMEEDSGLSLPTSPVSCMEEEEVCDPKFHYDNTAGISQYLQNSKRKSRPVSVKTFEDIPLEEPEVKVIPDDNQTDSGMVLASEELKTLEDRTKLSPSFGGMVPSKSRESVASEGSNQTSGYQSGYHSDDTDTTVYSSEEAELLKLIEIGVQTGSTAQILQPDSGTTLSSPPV

[2] = biological target: human VEGF receptor (VEGFR-2) (Homo sapiens (Human), UniProt P35968); experiment: VEGFR2 Kinase Assay (Enzymic VEGFR2); type: biochemical; conditions: His-VEGFR-2 cytoplasmic domain, 3.6 µM ATP
Sequence of human VEGF receptor (VEGFR-2) (P35968 786-1356): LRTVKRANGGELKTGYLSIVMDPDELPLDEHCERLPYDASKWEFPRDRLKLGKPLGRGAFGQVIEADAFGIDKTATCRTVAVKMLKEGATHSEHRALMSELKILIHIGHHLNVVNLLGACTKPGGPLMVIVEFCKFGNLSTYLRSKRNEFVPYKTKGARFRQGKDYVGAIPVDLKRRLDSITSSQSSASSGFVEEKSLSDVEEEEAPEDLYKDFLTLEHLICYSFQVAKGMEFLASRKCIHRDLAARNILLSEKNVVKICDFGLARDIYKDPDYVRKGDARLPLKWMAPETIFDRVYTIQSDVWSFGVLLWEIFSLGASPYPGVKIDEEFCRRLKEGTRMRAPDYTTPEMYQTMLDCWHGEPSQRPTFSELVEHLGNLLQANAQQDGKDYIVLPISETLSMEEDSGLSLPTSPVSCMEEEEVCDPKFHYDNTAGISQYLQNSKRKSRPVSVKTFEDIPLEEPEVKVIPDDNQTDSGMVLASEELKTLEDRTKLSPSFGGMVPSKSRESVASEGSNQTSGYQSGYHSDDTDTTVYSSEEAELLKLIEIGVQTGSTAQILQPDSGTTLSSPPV

Sequence of VEGFR1 (P17948 27-1338, species assumed): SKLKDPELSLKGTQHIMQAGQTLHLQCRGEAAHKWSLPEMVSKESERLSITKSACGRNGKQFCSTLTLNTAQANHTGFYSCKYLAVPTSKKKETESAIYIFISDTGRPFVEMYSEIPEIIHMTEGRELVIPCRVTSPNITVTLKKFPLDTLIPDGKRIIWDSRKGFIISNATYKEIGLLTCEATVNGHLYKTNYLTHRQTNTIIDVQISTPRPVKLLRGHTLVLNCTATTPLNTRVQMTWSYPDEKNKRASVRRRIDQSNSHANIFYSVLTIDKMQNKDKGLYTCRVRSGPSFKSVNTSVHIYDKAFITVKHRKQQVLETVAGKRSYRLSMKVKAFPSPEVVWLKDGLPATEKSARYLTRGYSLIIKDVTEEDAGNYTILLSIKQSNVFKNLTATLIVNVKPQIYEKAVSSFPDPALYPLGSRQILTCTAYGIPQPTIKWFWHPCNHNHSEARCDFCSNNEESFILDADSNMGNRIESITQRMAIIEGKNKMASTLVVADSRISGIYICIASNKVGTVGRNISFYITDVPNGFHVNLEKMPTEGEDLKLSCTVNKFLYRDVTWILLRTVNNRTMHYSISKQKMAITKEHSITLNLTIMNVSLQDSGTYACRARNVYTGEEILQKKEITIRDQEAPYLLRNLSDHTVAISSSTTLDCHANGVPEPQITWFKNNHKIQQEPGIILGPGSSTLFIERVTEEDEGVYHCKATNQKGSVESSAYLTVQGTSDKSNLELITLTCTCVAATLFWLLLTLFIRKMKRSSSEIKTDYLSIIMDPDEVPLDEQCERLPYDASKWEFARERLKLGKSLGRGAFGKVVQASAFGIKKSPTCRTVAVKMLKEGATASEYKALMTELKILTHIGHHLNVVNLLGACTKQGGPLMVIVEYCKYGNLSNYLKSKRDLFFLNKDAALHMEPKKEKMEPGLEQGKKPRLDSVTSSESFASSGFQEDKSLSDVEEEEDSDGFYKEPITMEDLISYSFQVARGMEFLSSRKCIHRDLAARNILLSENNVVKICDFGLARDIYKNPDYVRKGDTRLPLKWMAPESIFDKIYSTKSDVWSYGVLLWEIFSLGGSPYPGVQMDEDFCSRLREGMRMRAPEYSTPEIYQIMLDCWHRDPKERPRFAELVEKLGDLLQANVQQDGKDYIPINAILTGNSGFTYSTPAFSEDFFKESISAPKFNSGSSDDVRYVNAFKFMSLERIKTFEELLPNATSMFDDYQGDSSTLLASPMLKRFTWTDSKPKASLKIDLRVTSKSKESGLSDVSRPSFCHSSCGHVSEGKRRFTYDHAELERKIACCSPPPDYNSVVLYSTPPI

| IC50 (VEGFR1) | In Vivo Rabbit Eye VEGF Permeability [1] | IC50 (PDGFRβ) | IC50 (VEGFR2) | IC50 [2] | Compound |
| --- | --- | --- | --- | --- | --- |
| 6 nM | Efficacious | 11 nM | 0.8 nM | 3 nM | COC(=O)CNCCCNC(=O)c1cc2nccc(Oc3ccc(NC(=O)Nc4cc(C)ccc4F)cc3)c2s1 [Example 18, methyl ({3-[({7-[4-({[(2-fluoro-5-methylphenyl)amino]carbonyl}amino)phenoxy]thieno[3,2-b]pyridin-2-yl}carbonyl)amino]propyl}amino)acetate] |
| 16 nM | efficacious |  | 29 nM | 20 nM | Cc1ccc(F)c(NC(=O)Nc2ccc(Oc3ccnc4cc(C(=O)O)sc34)cc2)c1 [Compound F2, 7-[4-({[(2-Fluoro-5-methylphenyl)amino]carbonyl}amino)phenoxy]thieno[3,2-b]pyridine-2-carboxylic acid] |
| 7 nM | Efficacious |  | 7 nM | 11 nM | Cc1ccc(F)c(NC(=O)Nc2ccc(Oc3ccnc4cc(C(=O)NCCCN5CCOCC5)sc34)cc2F)c1 [Example 55, 7-[3-fluoro-4-({[(2-fluoro-5-methylphenyl)amino]carbonyl}amino)phenoxy]-N-(3-morpholin-4-ylpropyl)thieno[3,2-b]pyridine-2-carboxamide] |
